Structures can show the parent of a compound that is named as a salt.
What follows are molecules tested on HT-29 cells (assay: HT-29 cell viability (necroptosis) assay). Conditions: Homo sapiens, TNF-α (40 ng/mL), Smac mimetic (100 nM), z-VAD (20 μM), 40 h, from survival rate curve.
Format: cell-based
Description: Human colon cancer HT-29 cells were used in a necroptosis assay. For this assay, HT-29 cells were added to 96-well plates. The compounds at different concentrations (0.3, 1.0, 3.0, 10.0, 20.0 μM) were then preprocessed for two hours. TNF-α (40 ng/mL), Smac mimetic (100 nM) and z-VAD (20 μM) were added, and the mixture was incubated for 40 h. Quantitative analysis of cell viability was conducted. DMSO pretreatment group was used as a negative control. Concentration for 50% of maximal effect was calculated according to the curve of the survival rate measured at different concentrations. FIG. 1 depicts the EC50 curves of compound A16.

Row | SMILES | EC50 [nM]
1 | CC1=Cc2cc3nccc(Nc4ccc5scnc5c4)c3cc2S1(=O)=O [Compound A3] | 620
2 | CC1=CS(=O)(=O)c2cc3c(Nc4ccc5scnc5c4)ccnc3cc21 [Compound A7] | 380
3 | CC(C)OC1=CS(=O)(=O)c2cc3c(Nc4ccc5scnc5c4)ccnc3cc21 [Compound A14] | 280
4 | COCCOC1=CS(=O)(=O)c2cc3c(Nc4ccc5scnc5c4)ccnc3cc21 [Compound A17] | 260
5 | O=S1(=O)C=C(c2ccccc2)c2cc3nccc(Nc4ccc5scnc5c4)c3cc21 [Compound A22] | 450
6 | Cn1ccc(C2=CS(=O)(=O)c3cc4c(Nc5ccc6scnc6c5)ccnc4cc32)n1 [Compound A33] | 350
7 | O=S1(=O)C=C(C2CC2)c2cc3nccc(Nc4cc(O)ccc4F)c3cc21 [Compound A89] | 220
8 | O=S1(=O)C=C(C2CC2)c2cc3nccc(Nc4ccc5cn[nH]c5c4)c3cc21 [Compound A91] | 160
9 | O=S1(=O)C=C(C2CC2)c2cc3nccc(Nc4ccc5nn[nH]c5c4)c3cc21 [Compound A92] | 420
10 | Cc1ccc(O)cc1Nc1ccnc2cc3c(cc12)S(=O)(=O)C=C3C1CC1 [Compound A95] | 300
11 | Cc1[nH]nc(Nc2ccnc3cc4c(cc23)S(=O)(=O)C=C4C2CC2)c1C [Compound A96] | 590
12 | O=S1(=O)C=C(C2CC2)c2cc3nccc(Nc4cc(O)c(F)cc4F)c3cc21 [Compound A100] | 950
13 | O=S1(=O)C=C(C2CC2)c2cc3nccc(Nc4cc(O)c(Cl)cc4F)c3cc21 [Compound A101] | 400
14 | O=S1(=O)C=C(C2CC2)c2cc3nccc(Nc4cncc(O)c4)c3cc21 [Compound A102] | 9000
15 | O=S1(=O)C=C(C2CC2)c2cc3nccc(Nc4ccn5ccnc5c4)c3cc21 [Compound A104] | 12000
16 | Cc1ccc(O)cc1Nc1ccnc2cc3c(cc12)S(=O)(=O)C=C3 [Compound A107] | 1060
17 | COc1c2c(cc3c(Nc4ccc5scnc5c4)ccnc13)S(=O)(=O)C=C2 [Compound A108] | 630

Row | SMILES | EC50 [nM]
18 | NCCOC1=CS(=O)(=O)c2cc3c(Nc4ccc5scnc5c4)ccnc3cc21 [Compound A110] | 2080
19 | O=S1(=O)C=C(OC2CCNC2)c2cc3nccc(Nc4ccc5scnc5c4)c3cc21 (centres unmarked) [Compound A113] | 1990
20 | CN1CCC(OC2=CS(=O)(=O)c3cc4c(Nc5ccc6scnc6c5)ccnc4cc32)C1 (centres unmarked) [Compound A114] | 310
21 | O=S1(=O)C=C(OC2CCOC2)c2cc3nccc(Nc4ccc5scnc5c4)c3cc21 (centres unmarked) [Compound A115] | 280
22 | O=S1(=O)C=C(O[C@@H]2CCOC2)c2cc3nccc(Nc4ccc5scnc5c4)c3cc21 [Compound A116] | 260
23 | O=S1(=O)C=C(O[C@H]2CCOC2)c2cc3nccc(Nc4ccc5scnc5c4)c3cc21 [Compound A117] | 390
24 | O=S1(=O)C=C(OC2COC2)c2cc3nccc(Nc4ccc5scnc5c4)c3cc21 [Compound A118] | 290
25 | O=C1CS(=O)(=O)c2cc3c(Nc4ccc5scnc5c4)ccnc3cc21 [Compound B3, 8-(benzo[d]thiazol-5-ylamino)thieno[2,3-g]quinolin-3(2H)-one 1,1-dioxide hydrochloride] | 3240
26 | CC1(C)C(=O)c2cc3nccc(Nc4ccc5scnc5c4)c3cc2S1(=O)=O [Compound B4, 8-(benzo[d]thiazol-5-ylamino)-2,2-dimethylthieno[2,3-g]quinolin-3(2H)-one 1,1-dioxide] | 2080
27 | C=C1c2cc3nccc(Nc4ccc5scnc5c4)c3cc2S(=O)(=O)C1(C)C [Compound B8, 8-(benzo[d]thiazol-5-ylamino)-2,2-dimethyl-3-methylene-2,3-dihydrothieno[2,3-g]quinoline 1,1-dioxide] | 930
28 | CC1(C)C(O)c2cc3nccc(Nc4ccc5scnc5c4)c3cc2S1(=O)=O (centres unmarked) [Compound B9] | 620
29 | Cc1ccc(O)cc1Nc1ccnc2cc3c(cc12)S(=O)(=O)C(C)(C)C3=O [Compound B13] | 520
30 | CC1(C)C(=O)c2cc3nccc(Nc4cc(O)ccc4F)c3cc2S1(=O)=O [Compound B14] | 320
31 | CC1(C)C(=O)c2cc3nccc(Nc4cc(O)c(F)cc4F)c3cc2S1(=O)=O [Compound B15] | 720
32 | CC1(C)C(=O)c2cc3nccc(Nc4cc(O)c(Cl)cc4F)c3cc2S1(=O)=O [Compound B16] | 1260
33 | O=S1(=O)CC2(CCCO2)c2cc3nccc(Nc4ccc5scnc5c4)c3cc21 (centres unmarked) [Compound B27] | 2200

Same assay, conditions: Homo sapiens, compound at 20 μM, TNF-α (40 ng/mL), Smac mimetic (100 nM), z-VAD (20 μM), 40 h, read-out: HT-29(20 μM) Survival

Row | SMILES | viability at 20 µM [%]
34 | CC1=C(C)S(=O)(=O)c2cc3c(Nc4cc(O)ccc4C)ccnc3cc21 [Compound A88] | 41.3
35 | O=S1(=O)C=C(C2CC2)c2cc3nccc(Nc4n[nH]c5ccc(F)cc45)c3cc21 [Compound A90] | 36
36 | O=C1NCCc2ccc(Nc3ccnc4cc5c(cc34)S(=O)(=O)C=C5C3CC3)cc21 [Compound A93] | 11.1
37 | O=S1(=O)C=C(C2CC2)c2cc3nccc(Nc4ccc5nc[nH]c5c4)c3cc21 [Compound A94] | 28.9
38 | N#Cc1cccc(Nc2ccnc3cc4c(cc23)S(=O)(=O)C=C4C2CC2)c1 [Compound A97] | 22.5
39 | N#Cc1cc(Nc2ccnc3cc4c(cc23)S(=O)(=O)C=C4C2CC2)ccc1O [Compound A98] | 14.8
40 | N#Cc1cc(O)cc(Nc2ccnc3cc4c(cc23)S(=O)(=O)C=C4C2CC2)c1 [Compound A99] | 72.7
41 | Nc1cncc(Nc2ccnc3cc4c(cc23)S(=O)(=O)C=C4C2CC2)c1 [Compound A103] | 46.1
42 | O=S1(=O)C=Cc2cc3nccc(Nc4ccc5scnc5c4)c3c(O)c21 [Compound A109] | 25
43 | CNCCOC1=CS(=O)(=O)c2cc3c(Nc4ccc5scnc5c4)ccnc3cc21 [Compound A111] | 42
44 | CN(C)CCOC1=CS(=O)(=O)c2cc3c(Nc4ccc5scnc5c4)ccnc3cc21 [Compound A112] | 37.2
45 | CCC1(C)C(C)c2cc3nccc(Nc4ccc5scnc5c4)c3cc2S1(=O)=O (centres unmarked) [Compound B5] | 39.2
46 | C=CCC1(C)C(=O)c2cc3nccc(Nc4ccc5scnc5c4)c3cc2S1(=O)=O (centres unmarked) [Compound B6] | 42.5
47 | CC1c2cc3nccc(Nc4ccc5scnc5c4)c3cc2S(=O)(=O)C1(C)CC1CC1 (centres unmarked) [Compound B7] | 19.1
48 | CC1(O)c2cc3nccc(Nc4ccc5scnc5c4)c3cc2S(=O)(=O)C1(C)C (centres unmarked) [Compound B10, 8-(benzo[d]thiazol-5-ylamino)-3-hydroxy-2,2,3-trimethyl-2,3-dihydrothieno[2,3-g]quinoline 1,1-dioxide] | 36.4
49 | CC1(C)C(O)(C2CC2)c2cc3nccc(Nc4ccc5scnc5c4)c3cc2S1(=O)=O (centres unmarked) [Compound B11] | 26.2
50 | CC1(C)C(=O)c2c(cc3c(Nc4ccc5scnc5c4)ccnc3c2C2CC2)S1(=O)=O [Compound B12, 8-(benzo[d]thiazol-5-ylamino)-4-cyclopropyl-2,2-dimethylthieno[2,3-g]quinolin-3(2H)-one 1,1-dioxide] | 10.3
51 | CC1(C)C(=O)c2cc3nccc(Nc4ccc(O)c(C#N)c4)c3cc2S1(=O)=O [Compound B17] | 22.8
52 | Cc1n[nH]c(Nc2ccnc3cc4c(cc23)S(=O)(=O)C(C)(C)C4=O)c1C [Compound B18] | 22.7
53 | CC1(C)C(=O)c2cc3nccc(Nc4n[nH]c5ccc(F)cc45)c3cc2S1(=O)=O [Compound B19] | 7.2
54 | O=C1c2c(cc3c(Nc4ccc5scnc5c4)ccnc3c2Cl)S(=O)(=O)C12CC=CC2 [Compound B21] | 4.9
55 | O=C1c2cc3nccc(Nc4ccc5scnc5c4)c3cc2S(=O)(=O)C12CC=CC2 [Compound B22] | 23.5
56 | O=S1(=O)CC(c2ccccc2)c2cc3nccc(Nc4ccc5scnc5c4)c3cc21 (centres unmarked) [Compound B23] | 12.7
57 | COc1ccc(C2CS(=O)(=O)c3cc4c(Nc5ccc6scnc6c5)ccnc4cc32)cc1 (centres unmarked) [Compound B24] | 16.5
58 | O=S1(=O)c2cc3c(Nc4ccc5scnc5c4)ccnc3cc2OCC12CC2 [Compound B25] | 70.7
59 | O=S1(=O)c2cc3c(Nc4ccc5scnc5c4)ccnc3cc2OCC12CCC2 [Compound B26] | 72.6
60 | O=S1(=O)CC2(COC2)c2cc3nccc(Nc4ccc5scnc5c4)c3cc21 [Compound B28, 8′-(benzo[d]thiazol-5-ylamino)-2′H-spiro[oxetane-3,3′-thieno[2,3-g]quinoline] 1′, 1′-dioxide] | 15

Each molecule was assayed on L929 cells (assay: L929 cell viability (necroptosis) assay). Conditions: Mus musculus, TNF-α (40 ng/mL), z-VAD (20 μM), 16 h.
Format: cell-based
Description: (§1) L929 cells were added to 96-well plate. The compounds at different concentrations (0.3, 1.0, 3.0, 10.0, 20.0 μM) were then preprocessed for two hours. TNF-α (40 ng/mL), and z-VAD (20 μM) were added, and the mixture was incubated for 16 h. Quantitative analysis of cell survival was conducted. DMSO pretreatment was used as a negative control. Concentration for 50% of maximal effect was calculated according to the curve of the survival rate measured at different concentrations. FIG. 3 depicts the EC50 curves of compound A3.

Row | SMILES | EC50 [nM]
61 | CC1=Cc2cc3nccc(Nc4ccc5scnc5c4)c3cc2S1(=O)=O [Compound A3] | 1940
62 | CC1=CS(=O)(=O)c2cc3c(Nc4ccc5scnc5c4)ccnc3cc21 [Compound A7] | 240

Each molecule was assayed on MEF cells (assay: MEF cell viability (necroptosis) assay). Conditions: Mus musculus, TNF-α (40 ng/mL), Smac mimetic (100 nM), z-VAD (20 μM), 12 h.
Format: cell-based
Description: as §1, with “MEF cells” for “L929 cells”, “ng/mL), Smac mimetic (100 nM)” for “ng/mL),”, “for 12” for “for 16”, “pretreatment group” for “pretreatment”, “FIG. 2” for “FIG. 3”, “compound A9.” for “compound A3.”

Row | SMILES | EC50 [nM]
63 | CC(C)OC1=CS(=O)(=O)c2cc3c(Nc4ccc5scnc5c4)ccnc3cc21 [Compound A14] | 290
64 | COCCOC1=CS(=O)(=O)c2cc3c(Nc4ccc5scnc5c4)ccnc3cc21 [Compound A17] | 300
65 | O=S1(=O)C=C(c2ccccc2)c2cc3nccc(Nc4ccc5scnc5c4)c3cc21 [Compound A22] | 830
66 | Cn1ccc(C2=CS(=O)(=O)c3cc4c(Nc5ccc6scnc6c5)ccnc4cc32)n1 [Compound A33] | 380
67 | CC1(C)C(=O)c2cc3nccc(Nc4ccc5scnc5c4)c3cc2S1(=O)=O [Compound B4, 8-(benzo[d]thiazol-5-ylamino)-2,2-dimethylthieno[2,3-g]quinolin-3(2H)-one 1,1-dioxide] | 9330
68 | C=C1c2cc3nccc(Nc4ccc5scnc5c4)c3cc2S(=O)(=O)C1(C)C [Compound B8, 8-(benzo[d]thiazol-5-ylamino)-2,2-dimethyl-3-methylene-2,3-dihydrothieno[2,3-g]quinoline 1,1-dioxide] | 1770
